Data reported in patent US4826531A (priority 1986, dated 1989).

How the values were obtained:
[…] (RICE) = assay type: in vivo, Pyricularia oryzae; conditions: 100 ppm foliar spray plus root drench ca. 40 ppm a.i./dry soil; 1-2 days before inoculation
[…] (VINE) = foliar fungal disease control test (Table III); assay type: in vivo, Plasmopara viticola; conditions: 100 ppm foliar spray plus root drench ca. 40 ppm a.i./dry soil; 1-2 days before inoculation
Method: (§1) The compounds were tested against a variety of foliar fungal diseases of plants. The technique employed was as follows.
(§2) The plants were grown in John Innes Potting Compost (No 1 or 2) in 4 cm diameter minipots. The test compounds were formulated either by bead milling with aqueous Dispersol T or as a solution in acetone or acetone/ethanol which was diluted to the required concentration immediately before use. For the foliage diseases, the formulations (100 ppm active ingredient) were sprayed on to the foliage and applied to the roots of the plants in the soil. The sprays were applied to maximum retention and the root drenches to a final concentration equivalent to approximately 40 ppm a.i./dry soil. Tween 20, to give a final concentration of 0.05%, was added when the sprays were applied to cereals.
(§3) For most of the tests the compound was applied to the soil (roots) and to the foliage (by spraying) one or two days before the plant was inoculated with the disease. An exception was the test on Erysiphe graminis in which the plants were inoculated 24 hours before treatment. Foliar pathogens were applied by spray as spore suspensions onto the leaves of test plants. After inoculation, the plants were put into an appropriate environment to allow infection to proceed and then incubated until the disease was ready for assessment. The period between inoculation and assessment varied from four to fourteen days according to the disease and environment.
(§4) The disease control was recorded by the following grading: […]

Tomato = experiment: whole plant screen for plant growth regulating activity; assay type: in vivo, Tomato (Ailsa Craig)
Method: (§5) These compounds were tested on a whole plant screen for plant growth regulating activity against six species of plant. The plant species used in this screen are presented in Table IV with the leaf stage at which they were sprayed.
(§6) A formulation of each chemical was applied at 4000 ppm (4 kg/ha in a 1000 l/ha field volume) using a tracksprayer and a SS8004E (Teejet) nozzle. Additional tests were done on tomatoes at 2000 and 500 ppm.
(§7) After spraying, the plants were grown in a glasshouse with 25° C. day/22° C. night temperatures. The exceptions to this were the temperate cereals wheat and barley, which were grown in 13°-16° C. day/11°-13° C. night temperatures. Supplementary lighting was supplied when necessary to provide an average photoperiod of 16 hours (14 hours minimum).
(§8) After 2-6 weeks in the glasshouse, depending on species and time of year, the plants were visually asessed for morphological characteristics against a control plant sprayed with a blank formulation.

[1] = system: VENTURIA INAEQUALS (APPLE); experiment: foliar fungal disease control test (Table III); assay type: in vivo, Venturia inaequalis; conditions: 100 ppm foliar spray plus root drench ca. 40 ppm a.i./dry soil; 1-2 days before inoculation
Method: as §1, §2, §3, §4

PH[…] (TOMATO) = assay type: in vivo, Phytophthora infestans; conditions: for disease control grading, PH[…] (TOMATO): 100 ppm foliar spray plus root drench ca. 40 ppm a.i./dry soil, 1-2 days before inoculation
[2] = system: CERCOSPORA ARACHIDICOLA (PEANUT); experiment: foliar fungal disease control test (Table III); assay type: in vivo; conditions: 100 ppm foliar spray plus root drench ca. 40 ppm a.i./dry soil; 1-2 days before inoculation
Method: as §1, §2, §3, §4

[3] = system: PUCCINIA RECONDITA (WHEAT); experiment: foliar fungal disease control test (Table III); assay type: in vivo; conditions: 100 ppm foliar spray plus root drench ca. 40 ppm a.i./dry soil; 1-2 days before inoculation
Method: as §1, §2, §3, §4

[4] = system: ERYSIPHE GRAMINIS (BARLEY); experiment: foliar fungal disease control test (Table III); assay type: in vivo; conditions: 100 ppm foliar spray plus root drench ca. 40 ppm a.i./dry soil; inoculated 24 hours before treatment
Method: as §1, §2, §3, §4

[5] = system: Meloidogyne incognita (tomato root-knot eelworm larvae); experiment: nematocidal activity
[6] = system: Diabrotica balteata (root worm larvae); experiment: insecticidal activity
Barley = experiment: whole plant screen for plant growth regulating activity; assay type: in vivo, Barley (Atem); conditions: 4000 ppm (4 kg/ha), assessed after 2-6 weeks
Method: as §5, §6, §7, §8

SMILES | disease control grading, […] (RICE) ([…] (RICE)) | disease control grading, […] (VINE) ([…] (VINE)) | plant growth regulating effect, TO (Tomato; 4000 ppm (4 kg/ha), assessed after 2-6 weeks) | disease control grading, VENTURIA INAEQUALS (APPLE) [1] | disease control grading, PH[…] (TOMATO) (PH[…] (TOMATO)) | disease control grading, CERCOSPORA ARACHIDICOLA (PEANUT) [2] | disease control grading, PUCCINIA RECONDITA (WHEAT) [3] | disease control grading, ERYSIPHE GRAMINIS (BARLEY) [4] | activity against Meloidogyne incognita [5] | disease control grading, PH[…] (TOMATO), root drench only (PH[…] (TOMATO); 100 ppm root drench only) | plant growth regulating effect, TO+ (Tomato; 500 ppm) | activity against Diabrotica balteata [6] | plant growth regulating effect, BR (Barley)
CO/C=C(/C(=O)OC)c1cccnc1Oc1ccc(C)cc1 [Compound 19] | 4 | 4 | 2GAT | 4 | 0 (60-100% of disease on untreated plants) | 4 | 4 | 4 | – | – | – | – | –
CO/C=C(/C(=O)OC)c1cccnc1Oc1ccccc1 [Compound 15, (E)-methyl-2-(2'-phenoxypyrid-3'-yl)-3-methoxyacrylate] | 4 | 4 | – | 4 | – | 4 | 4 | 4 | active | 4 | – | – | –
CO/C=C(/C(=O)OC)c1cccnc1OCc1ccccc1 [Compound 66] | 0 (60-100% of disease on untreated plants) | 2 (6-25% of disease on untreated plants) | – | 4 | 0 (60-100% of disease on untreated plants) | 1 (26-59% of disease on untreated plants) | 0 (60-100% of disease on untreated plants) | 4 | – | – | – | – | –
CO/C=C(/C(=O)OC)c1ccccn1 [Compound 106] | 0 (60-100% of disease on untreated plants) | 0 (60-100% of disease on untreated plants) | – | 0 (60-100% of disease on untreated plants) | – | 0 (60-100% of disease on untreated plants) | 0 (60-100% of disease on untreated plants) | 4 | – | – | – | – | –
CO/C=C(/C(=O)OC)c1cccnc1Oc1cc(F)cc(F)c1 [Compound 88] | 2 (6-25% of disease on untreated plants) | 4 | – | 4 | 4 | 3 (trace-5% of disease on untreated plants) | 4 | 4 | – | – | – | – | –
CO/C=C(/C(=O)OC)c1cccnc1Oc1cccc(Cl)c1 [Compound 23] | 4 | 4 | – | 4 | 4 | 4 | 4 | 4 | – | – | 2G | active | –
CO/C=C(/C(=O)OC)c1ccncc1Oc1ccccc1 [Compound 43, (E)-methyl-2-(3'-phenoxypyrid-4'-yl)-3-methoxyacrylate] | – | – | – | – | – | – | – | – | – | – | – | – | 2T
CO/C=C(/C(=O)OC)c1cccnc1Oc1ccc(F)cc1F [Compound 87] | 4 | 0 (60-100% of disease on untreated plants) | – | 4 | 0 (60-100% of disease on untreated plants) | 4 | 3 (trace-5% of disease on untreated plants) | 4 | – | – | – | – | –
CO/C=C(/C(=O)OC)c1cccnc1Oc1ccc(OC)cc1 [Compound 20] | 4 | 4 | – | 4 | 0 (60-100% of disease on untreated plants) | 4 | 4 | 4 | – | – | – | – | –
CO/C=C(/C(=O)OC)c1cccnc1Oc1cccc(C)c1 [Compound 58] | 4 | 4 | – | 4 | 3 (trace-5% of disease on untreated plants) | 4 | 4 | 4 | – | – | – | – | –
CO/C=C(/C(=O)OC)c1cccnc1Oc1ccc(Br)cc1 [Compound 18] | 0 (60-100% of disease on untreated plants) | 4 | – | 4 | 0 (60-100% of disease on untreated plants) | 4 | 1 (26-59% of disease on untreated plants) | 4 | – | – | – | – | –
CO/C=C(/C(=O)OC)c1cccnc1Oc1cccc(F)c1 [Compound 57] | 4 | 4 | – | 4 | 3 (trace-5% of disease on untreated plants) | 4 | 4 | 4 | – | – | – | – | –
CO/C=C(/C(=O)OC)c1cccnc1Oc1cc(Cl)cc(Cl)c1 [Compound 60] | 4 | 4 | – | 4 | 4 | 4 | 4 | 4 | – | – | – | – | –
CO/C=C(/C(=O)OC)c1ncccc1Oc1ccccc1 [Compound 1, (E)-methyl 2-(3'-phenoxypyrid-2'-yl)-3-methoxyacrylate] | 0 (60-100% of disease on untreated plants) | 0 (60-100% of disease on untreated plants) | – | 3 (trace-5% of disease on untreated plants) | 0 (60-100% of disease on untreated plants) | 4 | 0 (60-100% of disease on untreated plants) | 3 (trace-5% of disease on untreated plants) | – | – | – | – | –
CO/C=C(/C(=O)OC)c1cccnc1Oc1ccc(Cl)cc1 [Compound 16] | 4 | 4 | – | 4 | 3 (trace-5% of disease on untreated plants) | 4 | 4 | 4 | – | – | – | – | –
CO/C=C(/C(=O)OC)c1cccnc1Oc1ccc(C(F)(F)F)cc1 [Compound 21] | 0 (60-100% of disease on untreated plants) | 4 | – | 4 | 3 (trace-5% of disease on untreated plants) | 4 | 4 | 4 | – | – | – | – | –
